According to patent publication US6822112B1, “Prostaglandin derivatives” (Taisho Pharmaceutical Co., Ltd., priority 1999, dated 2004):

Test system: EBTr [NBL-4] cell derived from bovine embryonic trachea
Test: Measurement of cAMP production promoting action in EBTr [NBL-4] cell
Format: cell-based
Conditions: 1 × 10^−9 M concentration of compound added; EBTr [NBL-4] cells, 15 minutes with 0.5 mM 3-isobutyl-1-methylxanthine; cAMP EIA
Procedure: Measurement of cAMP production promoting action in EBTr [NBL-4] cell derived from bovine embryonic trachea
According to the method of Ito et al. in Br. J. Pharmacol., vol. 99, page 13 (1990), the following test was carried out.
That is, EBTr [NBL-4] cells derived from bovine embryonic trachea (produced by Dainippon Pharmaceutical Co.) were inoculated on 24-well plates (6×10^4 cells/well) (manufactured by Sumitomo Bakelite Co.), and cultured on a growth medium (MEM Earle's medium including 10% calf serum, 2 mM glutamine and non-essential amino acids) for 48 hours, followed by cultivation on 0.5 ml of a growth medium including the test compound and 0.5 mM 3-isobutyl-1-methylxanthine for 15 minutes. After the completion of the reaction, the cells were washed with a phosphate buffer (not including Ca^++ and Mg^++), 0.6 ml of 65% aqueous ethanol solution was added, followed by allowing to stand at 4° C. for an hour, and the resulting cAMP was extracted. After evaporation of the solvent by a centrifugal evaporator, the amount of cAMP was measured by using a cAMP EIA System (manufactured by Amersham Co.).

## O=C(O)c1ccc(CCCC2C(Cl)CC(O)C2C#CC(O)C2CCCCC2)cc1 (stereo not drawn) [Compound 35, 9-Deoxy-9β-chloro-2,3,4,16,17,18,19,20-octanor-1,5-inter-p-phenylene-15-cyclohexyl-13,14-didehydro-PGF1α]
  cAMP production promoting action (percent to PGD2): 150 percent to PGD2
